# Measured values reported in ChEMBL document CHEMBL4219266, “Identification of quinone analogues as potential inhibitors of picornavirus 3C protease in vitro” (Bioorg Med Chem Lett, 2018).
# Calls of active or inactive are those of the source. The rule behind the calls is not given here.
# Experiments:
# [1] = target: Genome polyprotein (Coxsackievirus B3 (strain Nancy), UniProt P03313); test: Inhibition of human coxsackievirus B3 protease 3C expressed in Escherichia coli (BL21) using fluorogenic-Dabcyl-KEALFQGPPQFE-Edans as substrate after 1 hr by FRET assay
# Chain of Genome polyprotein (Coxsackievirus B3 (strain Nancy), UniProt P03313) (P03313 1541-1723 limits assumed): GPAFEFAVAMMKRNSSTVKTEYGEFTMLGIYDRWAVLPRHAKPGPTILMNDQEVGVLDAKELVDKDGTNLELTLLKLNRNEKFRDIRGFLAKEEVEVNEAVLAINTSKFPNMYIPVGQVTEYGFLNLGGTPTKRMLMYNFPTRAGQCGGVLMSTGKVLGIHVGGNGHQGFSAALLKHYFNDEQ
# [2] = target: Genome polyprotein (Coxsackievirus B3 (strain Nancy)) (UniProt P03313); test: Inhibition of human coxsackievirus B3 protease 3C expressed in Escherichia coli (BL21) at 40 uM using fluorogenic-Dabcyl-KEALFQGPPQFE-Edans as substrate after 1 hr by FRET assay
# Chain of Genome polyprotein (Coxsackievirus B3 (strain Nancy)) (P03313 whole entry): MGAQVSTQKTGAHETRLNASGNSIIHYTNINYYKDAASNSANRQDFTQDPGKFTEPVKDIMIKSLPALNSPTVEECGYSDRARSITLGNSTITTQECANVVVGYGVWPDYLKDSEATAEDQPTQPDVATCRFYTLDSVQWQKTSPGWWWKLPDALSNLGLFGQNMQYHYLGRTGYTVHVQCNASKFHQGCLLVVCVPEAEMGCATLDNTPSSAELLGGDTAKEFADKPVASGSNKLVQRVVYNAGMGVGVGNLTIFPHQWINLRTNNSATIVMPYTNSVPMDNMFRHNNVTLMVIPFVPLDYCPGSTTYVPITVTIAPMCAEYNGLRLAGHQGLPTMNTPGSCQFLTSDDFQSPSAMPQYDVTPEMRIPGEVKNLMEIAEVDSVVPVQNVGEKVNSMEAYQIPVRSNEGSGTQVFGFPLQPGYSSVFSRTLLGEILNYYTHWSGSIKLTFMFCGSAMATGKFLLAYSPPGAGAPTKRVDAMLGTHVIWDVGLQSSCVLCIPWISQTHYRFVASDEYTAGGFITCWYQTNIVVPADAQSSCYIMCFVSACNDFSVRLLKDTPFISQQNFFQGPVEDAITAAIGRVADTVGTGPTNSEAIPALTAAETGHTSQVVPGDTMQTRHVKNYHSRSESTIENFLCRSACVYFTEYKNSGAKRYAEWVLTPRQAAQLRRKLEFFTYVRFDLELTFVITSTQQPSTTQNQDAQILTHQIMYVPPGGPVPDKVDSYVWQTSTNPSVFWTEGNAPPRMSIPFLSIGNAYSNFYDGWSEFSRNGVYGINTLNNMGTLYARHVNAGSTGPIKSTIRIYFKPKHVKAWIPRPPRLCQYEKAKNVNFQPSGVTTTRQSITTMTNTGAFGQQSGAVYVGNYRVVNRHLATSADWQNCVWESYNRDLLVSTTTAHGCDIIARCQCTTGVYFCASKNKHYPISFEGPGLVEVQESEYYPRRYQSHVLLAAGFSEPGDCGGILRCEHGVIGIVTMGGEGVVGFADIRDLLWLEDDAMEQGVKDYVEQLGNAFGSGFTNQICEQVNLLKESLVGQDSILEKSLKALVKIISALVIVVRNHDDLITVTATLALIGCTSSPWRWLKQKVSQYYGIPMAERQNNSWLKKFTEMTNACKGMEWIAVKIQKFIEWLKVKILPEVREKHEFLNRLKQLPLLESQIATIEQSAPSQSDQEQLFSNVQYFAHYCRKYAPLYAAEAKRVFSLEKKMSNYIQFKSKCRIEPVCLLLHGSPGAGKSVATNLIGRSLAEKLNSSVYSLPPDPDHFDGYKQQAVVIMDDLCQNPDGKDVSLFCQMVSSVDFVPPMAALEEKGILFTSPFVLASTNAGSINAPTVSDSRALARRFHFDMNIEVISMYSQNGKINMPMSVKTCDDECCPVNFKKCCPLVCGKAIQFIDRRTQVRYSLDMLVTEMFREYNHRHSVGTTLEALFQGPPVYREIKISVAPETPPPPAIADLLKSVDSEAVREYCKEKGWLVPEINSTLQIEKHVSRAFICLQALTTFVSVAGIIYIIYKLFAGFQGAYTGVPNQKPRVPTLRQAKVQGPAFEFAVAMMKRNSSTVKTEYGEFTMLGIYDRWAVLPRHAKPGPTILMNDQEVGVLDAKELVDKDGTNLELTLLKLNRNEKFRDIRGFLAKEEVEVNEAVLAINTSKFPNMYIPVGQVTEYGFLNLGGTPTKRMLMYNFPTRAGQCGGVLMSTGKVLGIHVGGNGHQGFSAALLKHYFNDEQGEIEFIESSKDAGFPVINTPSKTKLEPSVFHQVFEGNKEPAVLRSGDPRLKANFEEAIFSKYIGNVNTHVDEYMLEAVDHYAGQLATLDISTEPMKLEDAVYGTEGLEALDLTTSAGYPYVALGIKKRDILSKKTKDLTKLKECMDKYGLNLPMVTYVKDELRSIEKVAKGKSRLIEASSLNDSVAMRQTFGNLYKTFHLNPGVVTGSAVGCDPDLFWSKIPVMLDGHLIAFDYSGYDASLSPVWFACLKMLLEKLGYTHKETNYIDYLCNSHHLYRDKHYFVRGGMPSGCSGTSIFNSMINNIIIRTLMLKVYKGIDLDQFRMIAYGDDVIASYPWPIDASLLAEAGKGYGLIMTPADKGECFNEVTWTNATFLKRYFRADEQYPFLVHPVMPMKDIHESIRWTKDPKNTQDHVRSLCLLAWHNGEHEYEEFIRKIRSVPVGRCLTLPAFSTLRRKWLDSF
# [3] = target: Genome polyprotein (rhinovirus B14) (UniProt P03303); test: Inhibition of human rhinovirus protease 3C catalytic activity assessed as suppression of target protein cleavage at 5 uM after 30 mins by SDS-PAGE analysis; conditions: Human rhinovirus sp.
# Chain of Genome polyprotein (rhinovirus B14) (P03303 whole entry): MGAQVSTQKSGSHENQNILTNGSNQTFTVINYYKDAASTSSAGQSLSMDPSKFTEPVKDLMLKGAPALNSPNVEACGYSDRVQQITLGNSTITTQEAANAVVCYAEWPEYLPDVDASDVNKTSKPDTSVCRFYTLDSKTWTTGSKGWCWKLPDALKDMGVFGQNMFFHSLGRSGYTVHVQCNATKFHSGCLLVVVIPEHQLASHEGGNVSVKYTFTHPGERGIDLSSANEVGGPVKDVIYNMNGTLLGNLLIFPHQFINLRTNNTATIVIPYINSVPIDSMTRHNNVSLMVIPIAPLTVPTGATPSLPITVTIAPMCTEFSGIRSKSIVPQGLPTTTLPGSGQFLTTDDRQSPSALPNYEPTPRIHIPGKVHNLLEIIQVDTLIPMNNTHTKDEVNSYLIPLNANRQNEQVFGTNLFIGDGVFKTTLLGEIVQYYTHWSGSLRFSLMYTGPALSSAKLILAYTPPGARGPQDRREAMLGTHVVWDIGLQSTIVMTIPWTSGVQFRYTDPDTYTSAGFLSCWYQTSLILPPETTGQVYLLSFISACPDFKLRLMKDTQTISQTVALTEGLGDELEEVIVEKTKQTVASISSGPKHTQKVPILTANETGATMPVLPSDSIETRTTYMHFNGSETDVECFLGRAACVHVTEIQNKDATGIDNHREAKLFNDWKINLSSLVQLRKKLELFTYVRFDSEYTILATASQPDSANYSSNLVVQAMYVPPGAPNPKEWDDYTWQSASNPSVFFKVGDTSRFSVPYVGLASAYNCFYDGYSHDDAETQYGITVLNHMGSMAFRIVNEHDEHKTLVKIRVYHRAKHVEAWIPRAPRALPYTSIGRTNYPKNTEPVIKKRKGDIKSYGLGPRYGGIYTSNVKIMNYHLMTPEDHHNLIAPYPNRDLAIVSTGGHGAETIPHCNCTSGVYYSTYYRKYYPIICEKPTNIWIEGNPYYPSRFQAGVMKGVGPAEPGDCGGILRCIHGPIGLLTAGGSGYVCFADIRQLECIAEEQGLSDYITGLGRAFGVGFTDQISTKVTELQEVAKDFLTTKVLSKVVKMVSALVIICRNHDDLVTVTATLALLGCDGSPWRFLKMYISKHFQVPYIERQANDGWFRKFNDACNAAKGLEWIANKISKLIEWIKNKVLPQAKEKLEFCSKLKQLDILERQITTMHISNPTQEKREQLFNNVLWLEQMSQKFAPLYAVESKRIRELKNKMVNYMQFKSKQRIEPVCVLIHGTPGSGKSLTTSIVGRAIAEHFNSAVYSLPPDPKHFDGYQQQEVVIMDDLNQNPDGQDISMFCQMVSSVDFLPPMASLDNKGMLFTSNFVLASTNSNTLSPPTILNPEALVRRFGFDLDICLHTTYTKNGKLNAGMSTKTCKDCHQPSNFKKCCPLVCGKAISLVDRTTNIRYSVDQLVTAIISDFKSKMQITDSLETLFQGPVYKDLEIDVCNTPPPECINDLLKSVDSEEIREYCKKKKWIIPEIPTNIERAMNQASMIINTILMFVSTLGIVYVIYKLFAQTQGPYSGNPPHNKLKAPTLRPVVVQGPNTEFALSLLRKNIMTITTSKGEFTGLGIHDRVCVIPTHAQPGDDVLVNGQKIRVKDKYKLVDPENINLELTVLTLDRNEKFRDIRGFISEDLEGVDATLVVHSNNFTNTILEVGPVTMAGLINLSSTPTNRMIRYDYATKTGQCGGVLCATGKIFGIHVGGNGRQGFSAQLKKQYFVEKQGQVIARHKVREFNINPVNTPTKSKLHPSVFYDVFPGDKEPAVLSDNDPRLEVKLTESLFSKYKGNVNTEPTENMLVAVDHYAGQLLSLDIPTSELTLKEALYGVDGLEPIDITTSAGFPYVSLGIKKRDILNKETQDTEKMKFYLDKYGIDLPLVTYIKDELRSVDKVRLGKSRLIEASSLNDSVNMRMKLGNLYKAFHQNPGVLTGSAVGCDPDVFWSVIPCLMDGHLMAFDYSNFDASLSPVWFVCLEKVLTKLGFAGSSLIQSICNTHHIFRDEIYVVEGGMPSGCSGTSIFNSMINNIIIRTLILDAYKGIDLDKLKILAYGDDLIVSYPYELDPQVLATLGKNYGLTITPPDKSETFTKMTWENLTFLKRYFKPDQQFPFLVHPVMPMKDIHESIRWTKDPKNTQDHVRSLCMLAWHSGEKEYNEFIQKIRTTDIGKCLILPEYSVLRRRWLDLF
# [4] = target: Genome polyprotein (rhinovirus B14, UniProt P03303); test: Inhibition of recombinant human rhinovirus protease 3C using fluorogenic-Dabcyl-KTSAVLQSGFRKME-Edan as substrate after 5 mins by FRET assay; design: species or system Human rhinovirus sp.
# Chain of Genome polyprotein (rhinovirus B14, UniProt P03303) (P03303 1538-1719 limits assumed): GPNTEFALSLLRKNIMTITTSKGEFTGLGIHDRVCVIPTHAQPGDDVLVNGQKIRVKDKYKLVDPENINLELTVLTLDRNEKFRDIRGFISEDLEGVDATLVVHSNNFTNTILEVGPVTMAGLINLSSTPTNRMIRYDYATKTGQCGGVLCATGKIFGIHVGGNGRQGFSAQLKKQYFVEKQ
# [5] = target: Genome polyprotein (rhinovirus B14) (UniProt P03303); test: Inhibition of human rhinovirus protease 3C catalytic activity assessed as suppression of target protein cleavage at 50 uM after 30 mins by SDS-PAGE analysis; conditions: Human rhinovirus sp.
Structure (SMILES),IC50 [1],inhibition [2],other results
CN(Cc1ccccc1)CC(C(=O)c1ccc(Cl)cc1)n1cnc2ccccc2c1=O (centres undefined),6200 nM,> 64%,–
O=C(CCN1CCc2ccccc2CC1)c1ccc2c(c1)OCCO2,11100 nM,> 64%,–
Cc1ccc(NC2=C(Cl)C(=O)c3nc(C)[nH]c3C2=O)cc1,830 nM,–,–
O=C1C(Sc2ccccc2)=C(Sc2ccccc2)C(=O)c2[nH]c(-c3ccncc3)nc21,790 nM,–,–
COc1ccc(OC2=C(Cl)C(=O)c3ccccc3C2=O)c([N+](=O)[O-])c1,1700 nM,> 64%,inhibition [3]: Active; IC50 [4]: 850 nM
O=C1C(Cl)=C(Nc2cccc(Cl)c2)C(=O)c2[nH]c(-c3ccncc3)nc21,550 nM,–,–
Cc1nc2c([nH]1)C(=O)C(Cl)=C(Nc1cc(F)cc(F)c1)C2=O,900 nM,> 64%,inhibition [5]: Active; IC50 [4]: 8400 nM
Cc1[nH]c2ccccc2c1C1=C(Cl)C(=O)c2ncccc2C1=O,730 nM,–,–
O=C1C=CC(=O)N1c1ccc(OC(F)(F)C(F)F)c(N2C(=O)C=CC2=O)c1,1200 nM,> 64%,–
O=C1C(Oc2ccc(O)cc2)=C(Oc2ccc(O)cc2)C(=O)c2ncccc21,1200 nM,–,–
Cc1nc2c([nH]1)C(=O)C(Nc1ccc(C(F)(F)F)cc1)=C(Cl)C2=O,840 nM,–,–
Cc1[nH]c2ccccc2c1C1=C(O)C(=O)c2ncccc2C1=O,1100 nM,–,–
O=C1C(Sc2ccc(Cl)cc2)=C(Sc2ccc(Cl)cc2)C(=O)c2[nH]c(-c3ccncc3)nc21,570 nM,–,–
O=C1C(Cl)=C(Cl)C(=O)c2ncccc21,630 nM,–,–
COC(=O)/C=C/C(=O)[C@@H](NC(=O)OC(C)(C)C)C(C)C,1800 nM,> 64%,–
CC1(C)CC(=O)C2=C(C1)OC(=O)C2(Nc1ccccc1)C(F)(F)F (centres undefined),8300 nM,> 64%,–
Cc1ccc(N/N=C/c2c(O)cc(C)oc2=O)cc1,5400 nM,> 64%,–
